In ChEMBL document CHEMBL4706710, “Synthesis and evaluation of novel thiosemicarbazone and semicarbazone analogs with both anti-proliferative and anti-metastatic activities against triple negative breast cancer” (Bioorg Med Chem, 2021):
pIC50: −log10 of the molar value. One block for each compound: values may come before it. Calls of active or inactive are those of the source. The rule behind the calls is not given here.

Legend:
[1] = system: MCF7; assay: Antiproliferative activity against human MCF7 cells assessed as reduction in cell viability after 48 hrs by MTT assay; assay type: functional, cell-based; details: MCF7, 48 h
[2] = system: A549; assay: Antiproliferative activity against human A549 cells assessed as reduction in cell viability after 48 hrs by MTT assay; assay type: functional, cell-based; details: A549, 48 h
[3] = system: HT-29; assay: Antiproliferative activity against human HT-29 cells assessed as reduction in cell viability after 48 hrs by MTT assay; assay type: functional, cell-based; details: HT-29, 48 h
[4] = system: MDA-MB-231; assay: Potency index, ratio of hecogenin IC50 to test compound IC50 for antiproliferative activity against human MDA-MB-231 cells; assay type: functional
[5] = system: MCF7; assay: Potency index, ratio of hecogenin IC50 to test compound IC50 for antiproliferative activity against human MCF7 cells; assay type: functional
[6] = system: MDA-MB-231; assay: Antiproliferative activity against human MDA-MB-231 cells assessed as reduction in cell viability after 48 hrs by MTT assay; assay type: functional, cell-based; details: MDA-MB-231, 48 h
[7] = system: HUVEC; assay: Cytotoxicity against human HUVEC cells assessed as reduction in cell viability after 48 hrs by MTT assay; assay type: cell-based
[8] = system: MDA-MB-231; assay: Inhibition of cell migration in human MDA-MB-231 cells at 20 uM after 20 hrs by inverted microscopic method; assay type: functional, cell-based
[9] = system: MDA-MB-231; assay: Induction of cell cycle arrest in human MDA-MB-231 cells assessed as accumulation at sub-G1 phase at 40 uM after 48 hrs by propidium iodide staining based flow cytometric analysis (reference value: 3.25%); assay type: functional
[10] = system: MDA-MB-231; assay: Induction of apoptosis in human MDA-MB-231 cells assessed as late apoptotic cells at 10 uM after 3 hrs by annexin V-FITC/propidium iodide staining based flow cytometric analysis (reference value: 3.1%); assay type: functional
[11] = system: MDA-MB-231; assay: Induction of apoptosis in human MDA-MB-231 cells assessed as viable cells at 10 uM after 9 hrs by annexin V-FITC/propidium iodide staining based flow cytometric analysis (reference value: 91.2%); assay type: functional; details: read-out: Activity
[12] = system: MDA-MB-231; assay: Induction of cell cycle arrest in human MDA-MB-231 cells assessed as accumulation at sub-G1 phase at 20 uM after 48 hrs by propidium iodide staining based flow cytometric analysis (reference value: 3.25%); assay type: functional
[13] = system: MDA-MB-231; assay: Induction of apoptosis in human MDA-MB-231 cells assessed as late apoptotic cells at 10 uM after 6 hrs by annexin V-FITC/propidium iodide staining based flow cytometric analysis (reference value: 3.1%); assay type: functional
[14] = system: MDA-MB-231; assay: Induction of apoptosis in human MDA-MB-231 cells assessed as necrotic cells at 10 uM after 9 hrs by annexin V-FITC/propidium iodide staining based flow cytometric analysis (reference value: 3%); assay type: functional
[15] = system: MDA-MB-231; assay: Antiinvasive activity against in human MDA-MB-231 cells at 20 uM after 24 hrs by matrigel coated transwell assay; assay type: functional, cell-based
[16] = system: MCF7; assay: Induction of cell cycle arrest in human MCF7 cells assessed as accumulation at sub-G1 phase after 48 hrs by propidium iodide staining based flow cytometric analysis; assay type: functional; details: dose 10-40 µM
[17] = system: MCF7; assay: Induction of cell cycle arrest in human MCF7 cells assessed as accumulation at sub-G1 phase at 40 uM after 48 hrs by propidium iodide staining based flow cytometric analysis (reference value: 3.04%); assay type: functional
[18] = system: MDA-MB-231; assay: Induction of apoptosis in human MDA-MB-231 cells assessed as necrotic cells at 10 uM after 6 hrs by annexin V-FITC/propidium iodide staining based flow cytometric analysis (reference value: 3%); assay type: functional
[19] = system: MCF7; assay: Induction of cell cycle arrest in human MCF7 cells assessed as accumulation at sub-G1 phase at 10 uM after 48 hrs by propidium iodide staining based flow cytometric analysis (reference value: 3.04%); assay type: functional
[20] = system: MCF7; assay: Induction of cell cycle arrest in human MCF7 cells assessed as accumulation at sub-G1 phase at 20 uM after 48 hrs by propidium iodide staining based flow cytometric analysis (reference value: 3.04%); assay type: functional
[21] = system: MDA-MB-231; assay: Induction of apoptosis in human MDA-MB-231 cells assessed as viable cells at 10 uM after 6 hrs by annexin V-FITC/propidium iodide staining based flow cytometric analysis (reference value: 91.2%); assay type: functional; details: read-out: Activity
[22] = system: MDA-MB-231; assay: Induction of apoptosis in human MDA-MB-231 cells assessed as early apoptotic cells at 10 uM after 9 hrs by annexin V-FITC/propidium iodide staining based flow cytometric analysis (reference value: 2.7%); assay type: functional
[23] = system: MDA-MB-231; assay: Induction of apoptosis in human MDA-MB-231 cells assessed as increase in late apoptotic cells at 10 uM by annexin V-FITC/propidium iodide staining based flow cytometric analysis; assay type: functional, cell-based; details: time 3-9 hrs, TDE = time-dependent effect
[24] = system: MDA-MB-231; assay: Induction of cell cycle arrest in human MDA-MB-231 cells assessed as accumulation at sub-G1 phase after 48 hrs by propidium iodide staining based flow cytometric analysis; assay type: functional; details: dose 10-40 µM
[25] = system: MDA-MB-231; assay: Induction of apoptosis in human MDA-MB-231 cells assessed as viable cells at 10 uM after 3 hrs by annexin V-FITC/propidium iodide staining based flow cytometric analysis (reference value: 91.2%); assay type: functional; details: read-out: Activity
[26] = system: MDA-MB-231; assay: Induction of apoptosis in human MDA-MB-231 cells assessed as increase in early apoptotic cells at 10 uM by annexin V-FITC/propidium iodide staining based flow cytometric analysis; assay type: functional, cell-based; details: time 3-9 hrs, TDE = time-dependent effect
[27] = system: MDA-MB-231; assay: Induction of apoptosis in human MDA-MB-231 cells assessed as late apoptotic cells at 10 uM after 9 hrs by annexin V-FITC/propidium iodide staining based flow cytometric analysis (reference value: 3.1%); assay type: functional
[28] = system: MDA-MB-231; assay: Induction of apoptosis in human MDA-MB-231 cells assessed as early apoptotic cells at 10 uM after 6 hrs by annexin V-FITC/propidium iodide staining based flow cytometric analysis (reference value: 2.7%); assay type: functional
[29] = system: MDA-MB-231; assay: Induction of cell cycle arrest in human MDA-MB-231 cells assessed as accumulation at sub-G1 phase at 10 uM after 48 hrs by propidium iodide staining based flow cytometric analysis (reference value: 3.25%); assay type: functional
[30] = system: MDA-MB-231; assay: Induction of apoptosis in human MDA-MB-231 cells assessed as necrotic cells at 10 uM after 3 hrs by annexin V-FITC/propidium iodide staining based flow cytometric analysis (reference value: 3%); assay type: functional
[31] = system: MDA-MB-231; assay: Induction of apoptosis in human MDA-MB-231 cells assessed as early apoptotic cells at 10 uM after 3 hrs by annexin V-FITC/propidium iodide staining based flow cytometric analysis (reference value: 2.7%); assay type: functional

pIC50 [1]: 5.67
pIC50 [2]: 5.11
pIC50 [3]: 4.97
pIC50 [6]: 4.98
SMILES: CC(=O)O[C@H]1CC[C@@]2(C)[C@@H](CC[C@H]3[C@@H]4CC=C(/C(C)=N/NC(=S)Nc5ccccc5)[C@@]4(C)C(=O)C[C@@H]32)C1
Ratio IC50 [4]: >10
Ratio IC50 [5]: >10

SMILES: C[C@@H]1CC[C@@]2(OC1)O[C@H]1C[C@H]3[C@@H]4CC[C@H]5C[C@@H](O)CC[C@]5(C)[C@H]4CC(=O)[C@]3(C)[C@H]1[C@@H]2C
pIC50 [1]: 4.54
pIC50 [2]: < 4.40
pIC50 [3]: < 4.40
pIC50 [7]: < 4.00
pIC50 [6]: 4.51

pIC50 [1]: 5.80
pIC50 [2]: 5.26
pIC50 [3]: 5.17
pIC50 [6]: 5.57
SMILES: CC(=O)O[C@H]1CC[C@@]2(C)[C@@H](CC[C@H]3[C@@H]4CC=C(/C(C)=N/NC(N)=S)[C@@]4(C)C(=O)C[C@@H]32)C1
inhibition [8]: Active
Activity [9]: 54.95%
Activity [10]: 9.5%
viability at 10 µM [11]: 68.8%
Activity [12]: 39.79%
Activity [13]: 12.1%
Activity [14]: 8.2%
Activity [15]: Active
pIC50 [7]: < 4.00
Activity [16]: Dose-dependent effect
Activity [17]: 67.72%
Activity [18]: 7.5%
Activity [19]: 25.52%
Activity [20]: 44.95%
viability at 10 µM [21]: 74.1%
Activity [22]: 7.8%
Activity [23]: Tde
Activity [24]: Dose-dependent effect
viability at 10 µM [25]: 77.4%
Activity [26]: Tde
Activity [27]: 15.2%
Ratio IC50 [4]: >10
Activity [28]: 6.3%
Ratio IC50 [5]: >10
Activity [29]: 14.82%
Activity [30]: 7.2%
Activity [31]: 5.9%

pIC50 [1]: 4.94
pIC50 [2]: 4.64
pIC50 [3]: 4.75
pIC50 [6]: 4.81
SMILES: CC(=O)O[C@H]1CC[C@@]2(C)[C@@H](CC[C@H]3[C@@H]4CC=C(/C(C)=N/NC(=O)Nc5ccccc5)[C@@]4(C)C(=O)C[C@@H]32)C1

pIC50 [1]: 5.76
pIC50 [2]: 5.16
pIC50 [3]: 5.11
pIC50 [6]: 5.23
SMILES: CC(=O)O[C@H]1CC[C@@]2(C)[C@@H](CC[C@H]3[C@@H]4CC=C(/C(C)=N/NC(N)=O)[C@@]4(C)C(=O)C[C@@H]32)C1
pIC50 [7]: < 4.00
Ratio IC50 [4]: >10
Ratio IC50 [5]: >10

pIC50 [1]: 4.53
pIC50 [2]: < 4.40
pIC50 [3]: 4.43
pIC50 [6]: < 4.40
SMILES: CC(=O)O[C@H]1CC[C@@]2(C)[C@@H](CC[C@@H]3[C@@H]2CC(=O)N[C@]2(C)C(/C(C)=N/NC(=S)Nc4ccccc4C)=CC[C@@H]32)C1

pIC50 [1]: 4.45
pIC50 [2]: < 4.40
pIC50 [3]: < 4.40
pIC50 [6]: < 4.40
SMILES: CC(=O)O[C@H]1CC[C@@]2(C)[C@@H](CC[C@@H]3[C@@H]2CC(=O)N[C@]2(C)C(/C(C)=N/NC(=O)Nc4ccccc4)=CC[C@@H]32)C1

pIC50 [1]: 4.76
pIC50 [2]: 4.54
pIC50 [3]: 4.54
pIC50 [6]: 4.72
SMILES: CC(=O)O[C@H]1CC[C@@]2(C)[C@@H](CC[C@@H]3[C@@H]2CC(=O)N[C@]2(C)C(/C(C)=N/NC(N)=O)=CC[C@@H]32)C1

pIC50 [1]: 4.82
pIC50 [2]: 4.54
pIC50 [3]: 4.57
pIC50 [6]: 4.78
SMILES: CC(=O)O[C@H]1CC[C@@]2(C)[C@@H](CC[C@@H]3[C@@H]2CC(=O)N[C@]2(C)C(/C(C)=N/NC(N)=S)=CC[C@@H]32)C1

pIC50 [1]: 4.72
pIC50 [2]: 4.45
pIC50 [3]: 4.47
pIC50 [6]: 4.59
SMILES: CC(=O)O[C@H]1CC[C@@]2(C)[C@@H](CC[C@@H]3[C@@H]2CC(=O)N[C@]2(C)C(/C(C)=N/NC(=S)Nc4ccccc4)=CC[C@@H]32)C1

pIC50 [1]: 5.16
pIC50 [2]: 5.01
pIC50 [3]: 4.95
pIC50 [6]: 4.93
SMILES: CC(=O)O[C@H]1CC[C@@]2(C)[C@@H](CC[C@H]3[C@@H]4CC=C(/C(C)=N/NC(=S)Nc5ccc(C(F)(F)F)cc5)[C@@]4(C)C(=O)C[C@@H]32)C1

pIC50 [1]: 5.15
pIC50 [2]: 4.77
pIC50 [3]: 4.88
pIC50 [6]: 4.85
SMILES: CC(=O)O[C@H]1CC[C@@]2(C)[C@@H](CC[C@H]3[C@@H]4CC=C(/C(C)=N/NC(=S)Nc5ccccc5C)[C@@]4(C)C(=O)C[C@@H]32)C1

pIC50 [1]: 4.64
pIC50 [2]: 4.44
pIC50 [3]: 4.47
pIC50 [6]: 4.60
SMILES: CC(=O)O[C@H]1CC[C@@]2(C)[C@@H](CC[C@@H]3[C@@H]2CC(=O)N[C@]2(C)C(/C(C)=N/NC(=S)Nc4ccc(C(F)(F)F)cc4)=CC[C@@H]32)C1
